Measurements published in patent publication US20250170124A1, “METHODS OF DIAGNOSING AND TREATING NEURODEGENERATIVE DISEASES” (The General Hospital Corporation, priority 2022, published 2025).
Read-outs that look alike come from different tables or passages of the source.

Key:
[1] = test system: alpha-synuclein 5′-UTR IRE (SNCA 5′UTR); experiment: Primary screen/retest: ASYN 5′-UTR IRE-driven luciferase expression in H4 cells; format: cell-based, human; conditions: 48 h
α-Synuclein [2] = experiment: Decrease of α-syn in iPSC derived DA neurons; format: cell-based, human; set-up: Decrease syn(%) DA neurons: dose or concentration left out as unconfirmed; conditions: for Decrease αsyn(%) DA neurons: Table 2; for Decrease syn(%) DA neurons: Table 3
PGL3 5′UTR = experiment: Secondary (counterscreen) luciferase assay in H4-C cells, IRE stem-loop removed; format: cell-based, human; conditions: versus SNCA 5′UTR
α-Synuclein [3] = experiment: Western blots of α-syn in iPSC derived DA neuron lysates; format: cell-based, human; conditions: for inhibition of α-Synuclein protein expression versus β-Syn, γ-Syn, Ferritin, APP and Prion proteins: 1 μM, normalized to β-Actin
[4] = test system: PrP-5′UTR (prion protein IRE); format: cell-based, human; conditions: versus SNCA 5′UTR
alpha-synuclein = experiment: ELISA secondary screen for alpha-synuclein in SH-SY5Y cells; format: cell-based, human; set-up: Decrease syn(%) SHSY5Y cells: unit of the concentration uncertain; conditions: for Decrease αsyn(%) SHSY5Y cells: Table 2; for Decrease syn(%) SHSY5Y cells: Table 3
Procedure: FIG. 2 illustrates the results of ELISA experiments with compound 10 in SH-SY5Y cells. […]
FIG. 18 illustrates alpha Synuclein ELISA (Invitrogen) measurements from SHSY5 undifferentiated neurons treated with the indicated doses (triplicate wells) of compounds 2, 13, 11, 14, 15, and 16) for 48 h.
A human ASYN ELISA kit was utilized for all ELISA experiments (Invitrogen alpha-synuclein ELISA kit KHB0061) and the kit protocol was followed.
1) Plate SH-SY5Y […] cells (Corning, 3570) at 10,000 cells/well in 50 μL phenol red free media (phenol red-free DMEM with 4.5 g/L D-glucose [Lonza, 12-917F] supplemented with 10% FBS [Lonza, 14-503E], 200 μM L-glutamine [Lonza, 17-605E], 100 μM penstrep [Lonza, 17-602E] and 200 μg/mL geneticin [Invitrogen, 10131-027]).
2) Lid plates, then incubate cells for 24 hours at 37° C., 5% CO2, 95% humidity in a tissue culture incubator.
3) Pin 100 nL of each compound into the assay plates spanning a final concentration range from 100-0.006 μM.
4) Incubate plates for 48 h at 37° C., 5% CO2, 95% humidity. Following incubation, add 5 μL of Alamar blue solution per well and allow to incubate for 1 h at 37° C., 5% CO2, 95% humidity.
5) Read Alamar blue fluorescence using a Thermo Varioskan (570 nm excitation, 585 nm emission). Remove cell media and add 30 μL cell lysis solution with protease inhibitor (G Biosciences, 786-331; 10 μL/mL).
6) Place plates on a plate shaker for 1 h, before removing 20 μL lysate. Transfer cell lysates to 500 μL Eppendorf tubes and centrifuge (Eppendorf Centrifuge 5417C) for 10 min at 13,000 rpm.
7) Add 12 μL of the cell supernatant to 48 μL of standard diluent buffer (1:5). Add these samples to ELISA plate wells. Prepare ASYN standard curve wells as described in the kit manual.
8) Add 50 μL of anti-α-Synuclein (Detection Antibody) solution to each well, tapping the plate to mix. Cover the plate with a tape seal and incubate for 3 h at RT.
9) Wash wells four times with wash buffer using a multichannel pipette and add 100 μL of anti-rabbit IgG-HRP antibody solution to each well. Cover the plate and incubate for 30 min at RT. Wash wells four times with wash buffer and add 100 μL of Stabilized Chromogen to each well. Seal the plate and incubate in the dark at RT for 30 min.
10) Finally, add 100 μL of Stop Solution to each well, tapping the plate to mix, and read absorbance at 450 nm using an Envision plate reader (Perkin Elmer).

α-Syn = experiment: Decrease of α-syn in Triple SNCA cortical neurons; conditions: concentration not given; for Decrease αsyn(%) X3 SNCA neurons: Table 2
SNCA IRE = experiment: Spinach fluorescent assay, SNCA IRE fluorescence sensor R7
[5] = Homo sapiens, read-out: IC50/M (SNCA 5′UTR)
[6] = Homo sapiens, read-out: IC50/μM (SNCA 5′UTR)
[7] = 10 μM and 1 μM compound, 72 h, β-actin standardized, N=3
[8] = Homo sapiens, Table 2, H4 cells, luciferase, read-out: IC50/μM (SNCA 5′UTR)
[9] = Homo sapiens, Table 3, H4 cells, luciferase, read-out: IC50/M (SNCA 5′UTR)

Compound | Selectivity PGL3 5′UTR (PGL3 5′UTR; Table 2) | Selectivity PGL3 5′UTR (PGL3 5′UTR; Table 3) | IC50 [1, 8] | Selectivity PrP-5′UTR ([4]; Table 2) | Selectivity PrP-5′UTR ([4]; Table 3) | IC50 [1, 9] | further results
COC(=O)c1c(NC(=O)c2ccc([N+](=O)[O-])o2)sc2c1CCN(C(C)C)C2 [Compound 9, methyl 6-isopropyl-2-(5-nitrofuran-2-carboxamido)-4,5,6,7-tetrahydrothieno[2,3-c]pyridine-3-carboxylate] | 1,200-fold | 1,200-fold | – | – | – | – | IC50 [1, 5]: 0.1 µM; IC50 [1, 6]: 0.1 µM; Decrease αsyn(%) DA neurons (α-Synuclein [2]; @ 1 μM): 90 @ 1 μM %; Decrease syn(%) DA neurons (α-Synuclein [2]): 90 @ 1M %; inhibition of α-Synuclein protein expression versus β-Syn, γ-Syn, Ferritin, APP and Prion proteins (α-Synuclein [3]; 72 h): selectively inhibit; α-syn levels (Western blot) (α-Synuclein [3]; [7]): reduced
COc1ccc(/C=C/C(=O)c2cc(F)ccc2OC(=O)c2ccccc2)cc1OC [Compound 5, (E)-2-(3-(3,4-dimethoxyphenyl)acryloyl)-4-fluorophenyl benzoate] | 66-fold | – | 0.194 µM | Inc. | – | – | Decrease αsyn(%) SHSY5Y cells (alpha-synuclein; @ 0.1 μM): 20-50 @ 0.1%
CN(C)c1nc(N)nc(CSc2nnnn2-c2cccc3ccccc23)n1 [Compound 10, N^2,N^2-dimethyl-6-(((1-(naphthalen-1-yl)-1H-tetrazol-5-yl)thio)methyl)-1,3,5-triazine-2,4-diamine] | 34-fold | 34-fold | – | 35-fold | 35-fold | – | IC50 [1, 5]: 1.8 to 3.5 µM; IC50 [1, 6]: 1.8 to 3.5 µM; Decrease αsyn(%) DA neurons (α-Synuclein [2]; @ 1 μM): 60 @ 1 μM %; Decrease syn(%) DA neurons (α-Synuclein [2]): 60 @ 1M %; Decrease αsyn(%) SHSY5Y cells (alpha-synuclein; @ 0.1 μM): 19-38 @ 0.1%; Decrease syn(%) SHSY5Y cells (alpha-synuclein; @ 0.1 µM): 19-38 @ 0.1M %; Decrease αsyn(%) X3 SNCA neurons (α-Syn): 25%; inhibition of α-Synuclein protein expression versus β-Syn, γ-Syn, Ferritin, APP and Prion proteins (α-Synuclein [3]; 72 h): selectively inhibit; α-syn levels (Western blot) (α-Synuclein [3]; [7]): reduced
COc1cccc(N2CCN(C(=O)c3ccc(C[S+]([O-])c4ccc(C)cc4)o3)CC2)c1 (centres unmarked) [Compound 11, 1-(3-Methoxyphenyl)-4-(5-{[(4-methylphenyl)sulfinyl]methyl}-2-furoyl)piperazine] | – | 58-fold | – | – | 126-fold | 0.1 µM | Decrease syn(%) SHSY5Y cells (alpha-synuclein; @ 1 µM): 14-28 @ 1M^ %; binding to SNCA IRE (fluorescence of sensor R7) (SNCA IRE): binds strongly
COc1ccc(/C=C/C(=O)c2cc(F)ccc2OC(=O)c2ccccc2)cc1OC [Compound 14, 2-[(2E)-3-(3,4-dimethoxyphenyl)prop-2-enoyl]-4-fluorophenyl benzoate] | – | 66-fold | – | – | Inc. | 0.194 µM | Decrease syn(%) SHSY5Y cells (alpha-synuclein; @ 0.1 µM): 20-50 @ 0.1M %
COc1cccc(N2CCN(C(=O)c3ccc(C[S+]([O-])c4ccc(C)cc4)o3)CC2)c1 (centres unmarked) [Compound 1, (4-(3-methoxyphenyl)piperazin-1-yl)(5-((p-tolylsulfinyl)methyl)furan-2-yl)methanone] | 58-fold | – | 0.1 µM | 126-fold | – | – | Decrease αsyn(%) SHSY5Y cells (alpha-synuclein; @ 1 μM): 14-28 @ 1%
COC(=O)C1CC23C=CCN4CCC5(c6ccccc6NC15C2C)C43 (centres unmarked) [Compound 3, methyl 14-methyl-4,5,11,12-tetrahydro-1H,3a^1H,6H-3a,5a-methanoindolizino[8,1-cd]carbazole-5-carboxylate] | 31-fold | 31-fold | – | 17-fold | 17-fold | – | IC50 [1, 5]: 0.134 µM; IC50 [1, 6]: 0.134 µM; Decrease αsyn(%) DA neurons (α-Synuclein [2]; @ 1 μM): 60 @ 1 μM %; Decrease syn(%) DA neurons (α-Synuclein [2]): 60 @ 1M %; Decrease αsyn(%) SHSY5Y cells (alpha-synuclein; @ 1-10 μM): 15-19 @ 1-10%; Decrease syn(%) SHSY5Y cells (alpha-synuclein; @ 1-10M): 15-19 @ 1-10M %; Decrease αsyn(%) X3 SNCA neurons (α-Syn): 50%; inhibition of α-Synuclein protein expression versus β-Syn, γ-Syn, Ferritin, APP and Prion proteins (α-Synuclein [3]; 72 h): selectively inhibit; α-syn levels (Western blot) (α-Synuclein [3]; [7]): reduced
CCOC(=O)c1[nH]c(C)c(C(=O)c2cc(F)ccc2F)c1C [Compound 8, ethyl 4-(2,5-difluorobenzoyl)-3,5-dimethyl-1H-pyrrole-2-carboxylate] | 53-fold | – | 0.2 µM | 58-fold | – | – | Decrease αsyn(%) SHSY5Y cells (alpha-synuclein; @ 0.1-1 μM): 20-40 @ 0.1-1%
CN1CC[C@]2(C)c3cc(OC(=O)Nc4ccccc4)ccc3N(C)[C@H]12 [Posiphen, reference compound] | – | – | – | – | – | – | IC50 ([1]; Table 2, H4 cells, luciferase, read-out: IC50/μM (SNCA 5′UTR)): 10 µM; Decrease αsyn(%) DA neurons (α-Synuclein [2]; concentration not given): 25%; Decrease syn(%) DA neurons (α-Synuclein [2]; concentration not given): 25%; Decrease αsyn(%) SHSY5Y cells (alpha-synuclein; @10 μM): 25-50 @10%; Decrease syn(%) SHSY5Y cells (alpha-synuclein; @10 µM): 25-50 @10M ^ %; binding to SNCA IRE (fluorescence of sensor R7) (SNCA IRE): no measurable effect or quenching effect; Decrease αsyn(%) X3 SNCA neurons (α-Syn): 5%; Decrease syn(%) X3 SNCA neuron (α-Syn; Table 3): 5%; α-syn levels (Western blot) (α-Synuclein [3]): reduced
CCC1=Nc2cc(C(=O)NCCCOC)ccc2Sc2ccccc21 [Compound 16, 11-ethyl-N˜8˜-(3-methoxypropyl)dibenzo[b,f][1,4]thiazepine-8-carboxamide] | – | 68-fold | – | – | 127-fold | 0.127 µM | Decrease syn(%) SHSY5Y cells (alpha-synuclein; @ 1 µM): 30-60 @ 1M^ %
O=C(c1ccc(C[S+]([O-])c2ccccc2Cl)o1)N1CCN(c2ccccc2)CC1 (centres unmarked) [Compound 6, (5-(((2-chlorophenyl)sulfinyl)methyl)furan-2-yl)(4-phenylpiperazin-1-yl)methanone] | 80-fold | – | 0.1 µM | Inc. | – | – | Decrease αsyn(%) SHSY5Y cells (alpha-synuclein; @ 0.1-1 μM): 21-42 @ 0.1-1%
CCC1=Nc2cc(C(=O)NCCCOC)ccc2Sc2ccccc21 [Compound 7, 11-ethyl-N-(3-methoxypropyl)dibenzo[b,f][1,4]thiazepine-8-carboxamide] | 68-fold | – | 0.127 µM | 127-fold | – | – | Decrease αsyn(%) SHSY5Y cells (alpha-synuclein; @ 1 μM): 30-60 @ 1%
Cc1cc(C)cc(Nc2nc3ccc(C)cc3n3cnnc23)c1 [Compound 15, N-(3,5-dimethylphenyl)-8-methyl[1,2,4]triazolo[4,3-a]quinoxalin-4-amine] | – | 43-fold | – | – | 18-fold | 2.8 µM | Decrease syn(%) SHSY5Y cells (alpha-synuclein; @ 1 µM): 25-50 @ 1M^ %
O=C(c1ccc(C[S+]([O-])c2ccccc2Cl)o1)N1CCN(c2ccccc2)CC1 (centres unmarked) [Compound 12, 1-(5-{[(2-Chlorophenyl)sulfinyl]methyl}-2-furoyl)-4-phenylpiperazine] | – | 80-fold | – | – | Inc. | 0.1 µM | Decrease syn(%) SHSY5Y cells (alpha-synuclein; @ 0.1-1M): 21-42 @ 0.1-1M %
Cc1cc(C)cc(Nc2nc3ccc(C)cc3n3cnnc23)c1 [Compound 4, N-(3,5-dimethylphenyl)-8-methyl-[1,2,4]triazolo[4,3-a]quinoxalin-4-amine] | 43-fold | – | 2.8 µM | 18-fold | – | – | Decrease αsyn(%) SHSY5Y cells (alpha-synuclein; @ 1 μM): 25-50 @ 1%
CCOC(=O)c1[nH]c(C)c(C(=O)c2cc(F)ccc2F)c1C [Compound 13, Ethyl 4-(2,5-difluorobenzoyl)-3,5-dimethyl-1H-pyrrole-2-carboxylate] | – | 53-fold | – | – | 58-fold | 0.2 µM | Decrease syn(%) SHSY5Y cells (alpha-synuclein; @ 0.1-1M): 20-40 @ 0.1-1M %
